The source of these data is US20220356186A1, “PERK INHIBITING PYRROLOPYRIMIDINE COMPOUNDS” (HiberCell, Inc., priority 2019, published 2022).

Like-named read-outs stand apart in the source and are kept apart here.

The nature of one data set: Aqueous solubility. In kind it is physicochemical.
Data set [1] deals with T1, EIF2AK3 (PERK) catalytic domain (amino acids 536-1116) (Homo sapiens, UniProt Q9NZJ5).
T1 construct: EIF2AK3 (PERK) catalytic domain (amino acids 536-1116)
T1 sequence (Q9NZJ5 536-1116): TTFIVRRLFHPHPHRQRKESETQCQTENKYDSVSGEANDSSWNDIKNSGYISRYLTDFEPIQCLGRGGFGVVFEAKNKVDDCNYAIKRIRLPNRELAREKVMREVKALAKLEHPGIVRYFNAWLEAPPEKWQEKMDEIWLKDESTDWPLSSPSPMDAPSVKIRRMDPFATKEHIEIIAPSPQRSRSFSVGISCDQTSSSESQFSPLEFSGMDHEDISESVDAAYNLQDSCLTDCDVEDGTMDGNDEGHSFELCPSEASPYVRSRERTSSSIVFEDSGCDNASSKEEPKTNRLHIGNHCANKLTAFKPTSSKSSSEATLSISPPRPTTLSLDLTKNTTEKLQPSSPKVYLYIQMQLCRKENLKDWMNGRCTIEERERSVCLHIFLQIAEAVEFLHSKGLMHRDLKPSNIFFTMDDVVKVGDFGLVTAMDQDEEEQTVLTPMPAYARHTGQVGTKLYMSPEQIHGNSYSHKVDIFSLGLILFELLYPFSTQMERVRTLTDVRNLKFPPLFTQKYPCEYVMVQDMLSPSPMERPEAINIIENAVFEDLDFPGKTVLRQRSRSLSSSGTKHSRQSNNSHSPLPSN
Kind of data set: PERK in vitro activity assay (isolated), TR-FRET kinase assay. In kind it is biochemical. Summed up:
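TR-FRET read-out: after EDTA stop (10 mM final), Tb-labelled phospho-eIF2a antibody (2 nM) for 90 min; IC50 via 4-parameter nonlinear fit. Reaction: PERK aa 536-1116, GFP-eIF2a 100-200 nM, HEPES pH 7.5 with MgCl2/EGTA/Brij-35, 45 min, room temperature, started by enzyme.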
(In TR-FRET formats the signal depends on donor and acceptor labels being close together.)

The test system of data set [2] is GFP-eIF2α in HEK293 cells. Nature of the data set: PERK cellular assay, TR-FRET in HEK293-EGFP-eIF2a cells after tunicamycin-induced ER stress. In kind it is cell-based. Summed up: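 Compounds were added 30 min before a 2 h tunicamycin ([…]) challenge of lentivirally made GFP-eIF2α HEK293 cells, 5000/well; lysate TR-FRET ratio was the read-out.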
The next data set deals with select kinases. Kind of data set: KINOMEscan in vitro competition binding assay for select kinases.
Where [3] appears, read: biochemical potency, Table 2, read-out: PERK IC50.
Where [4] appears, read: Homo sapiens, HEK293, cellular potency, Table 2, read-out: P-EIF2α IC50.
The mark [5] stands for this setting: isolated PERK enzyme, 1.5 μM ATP, read-out: Biochemical IC50.
The mark [6] stands for this setting: HEK293-EGFP-eIF2a cells, tunicamycin 2 hours, read-out: Cellular eIF2α IC50.

A word on the IC50: it is the concentration needed to halve the response being measured. On to `Cc1cc(NC(=O)Cc2ccccc2)ccc1-c1cn(C)c2ncnc(N)c12` [Compound A, reference compound], for which the “Aq Sol” value in “Aqueous solubility” was determined as 14 µM. The IC50 in data set [1] (setting [3]) was 0.006 µM; in data set [2] (setting [4]), 0.041 µM.
Regarding `Cc1cc(NC(=O)C(O)c2cccc(F)c2)ccc1-c1cn(C)c2ncnc(N)c12` (stereo not shown) [Example 9, N-(4-(4-amino-7-methyl-7H-pyrrolo[2,3-d]pyrimidin-5-yl)-3-methylphenyl)-2-(3-fluorophenyl)-2-hydroxyacetamide], the “KINOMEscan competition binding, inhibition of AURKB” value in the data set on select kinases (kinase AURKB) is “Inhibition (“Inhibition” refers to greater than 50% inhibition)”. The “KINOMEscan competition binding, inhibition of AXL” value in the data set on select kinases (kinase AXL) is “No inhibition”. In addition, the “KINOMEscan competition binding, inhibition of BLK” value with select kinases (kinase BLK) is reported as “Inhibition (“Inhibition” refers to greater than 50% inhibition)”. The “KINOMEscan competition binding, inhibition of CAMK4” value in the data set on select kinases (kinase CAMK4) is listed as “Inhibition (“Inhibition” refers to greater than 50% inhibition)”. Further, the “KINOMEscan competition binding, inhibition of CDK8” value with select kinases (kinase CDK8) was “Inhibition (“Inhibition” refers to greater than 50% inhibition)”. Besides, the “KINOMEscan competition binding, inhibition of CDK11” value in the data set on select kinases (kinase CDK11) is “Inhibition (“Inhibition” refers to greater than 50% inhibition)”. Further, in the data set with select kinases (kinase CSF1R), the “KINOMEscan competition binding, inhibition of CSF1R” value is given as “Inhibition (“Inhibition” refers to greater than 50% inhibition)”. Also, the “KINOMEscan competition binding, inhibition of EIF2AK1” value in the data set with select kinases (kinase EIF2AK1) was “Inhibition (“Inhibition” refers to greater than 50% inhibition)”. The “KINOMEscan competition binding, inhibition of EPHB6” value in the data set on select kinases (kinase EPHB6) is on record as “Inhibition (“Inhibition” refers to greater than 50% inhibition)”. The “KINOMEscan competition binding, inhibition of FLT3” value in the data set with select kinases (kinase FLT3) is reported as “Inhibition (“Inhibition” refers to greater than 50% inhibition)”. Further, the “KINOMEscan competition binding, inhibition of HIPK4” value in the data set with select kinases (kinase HIPK4) is listed as “Inhibition (“Inhibition” refers to greater than 50% inhibition)”. For the same molecule, the “KINOMEscan competition binding, inhibition of LOK” value in the data set with select kinases (kinase LOK) is listed as “Inhibition (“Inhibition” refers to greater than 50% inhibition)”. Also, the “KINOMEscan competition binding, inhibition of MAP3K2” value in the data set on select kinases (kinase MAP3K2) is given as “Inhibition (“Inhibition” refers to greater than 50% inhibition)”. Moreover, the “KINOMEscan competition binding, inhibition of MAP3K3” value in the data set on select kinases (kinase MAP3K3) is given as “Inhibition (“Inhibition” refers to greater than 50% inhibition)”. Besides, the “KINOMEscan competition binding, inhibition of MAP3K15” value in the data set on select kinases (kinase MAP3K15) was “Inhibition (“Inhibition” refers to greater than 50% inhibition)”. Also, in the data set on select kinases (kinase MEK5), the “KINOMEscan competition binding, inhibition of MEK5” value is on record as “Inhibition (“Inhibition” refers to greater than 50% inhibition)”. In addition, the “KINOMEscan competition binding, inhibition of MKNK2” value in the data set on select kinases (kinase MKNK2) was “Inhibition (“Inhibition” refers to greater than 50% inhibition)”. In the data set on select kinases (kinase NEK1), the “KINOMEscan competition binding, inhibition of NEK1” value is “Inhibition (“Inhibition” refers to greater than 50% inhibition)”. Further, the “KINOMEscan competition binding, inhibition of NEK5” value with select kinases (kinase NEK5) was “Inhibition (“Inhibition” refers to greater than 50% inhibition)”. For the same molecule, the “KINOMEscan competition binding, inhibition of PIK3C2B” value with select kinases (kinase PIK3C2B) is recorded as “Inhibition (“Inhibition” refers to greater than 50% inhibition)”. The “KINOMEscan competition binding, inhibition of RIOK2” value with select kinases (kinase RIOK2) is “Inhibition (“Inhibition” refers to greater than 50% inhibition)”. Also, the “KINOMEscan competition binding, inhibition of RIPK1” value with select kinases (kinase RIPK1) is “No Inhibition (“No Inhibition” refers to less than 50% inhibition)”. Moreover, in the data set with select kinases (kinase RIPK2), the “KINOMEscan competition binding, inhibition of RIPK2” value is recorded as “Inhibition (“Inhibition” refers to greater than 50% inhibition)”. In addition, the “KINOMEscan competition binding, inhibition of RIPK5” value in the data set on select kinases (kinase RIPK5) was “Inhibition (“Inhibition” refers to greater than 50% inhibition)”. Moreover, the “KINOMEscan competition binding, inhibition of TESK1” value with select kinases (kinase TESK1) is given as “Inhibition (“Inhibition” refers to greater than 50% inhibition)”. Further, the “KINOMEscan competition binding, inhibition of TIE2” value in the data set on select kinases (kinase TIE2) was “Inhibition (“Inhibition” refers to greater than 50% inhibition)”. Further, in the data set with select kinases (kinase TRKA), the “KINOMEscan competition binding, inhibition of TRKA” value is “Inhibition (“Inhibition” refers to greater than 50% inhibition)”. Besides, the “KINOMEscan competition binding, inhibition of TRKB” value in the data set with select kinases (kinase TRKB) is listed as “Inhibition (“Inhibition” refers to greater than 50% inhibition)”. Also, the “KINOMEscan competition binding, inhibition of TRKC” value in the data set on select kinases (kinase TRKC) is recorded as “Inhibition (“Inhibition” refers to greater than 50% inhibition)”. Further, the “KINOMEscan competition binding, inhibition of VRK2” value in the data set with select kinases (kinase VRK2) is listed as “Inhibition (“Inhibition” refers to greater than 50% inhibition)”. Moreover, the “KINOMEscan competition binding, inhibition of YANK1” value with select kinases (kinase YANK1) is “Inhibition (“Inhibition” refers to greater than 50% inhibition)”. Also, the “KINOMEscan competition binding, inhibition of YANK2” value with select kinases (kinase YANK2) is on record as “Inhibition (“Inhibition” refers to greater than 50% inhibition)”. In the data set with select kinases (kinase YSK4), the “KINOMEscan competition binding, inhibition of YSK4” value was “Inhibition (“Inhibition” refers to greater than 50% inhibition)”. For the same molecule, the IC50 in data set [1] (setting [5]) and in data set [2] (setting [6]) was 0.001 to 0.025 µM in each case.
Turning to `Cc1cc(NC(=O)C(O)c2ccccc2)ccc1-c1cn(C)c2ncnc(N)c12` (stereo not shown) [Example 6, N-(4-(4-amino-7-methyl-7H-pyrrolo[2,3-d]pyrimidin-5-yl)-3-methylphenyl)-2-hydroxy-2-phenylacetamide], the “Aq Sol” value in the data set “Aqueous solubility” is 57 µM. Moreover, the IC50 in data set [1] (setting [3]) was 0.002 µM; in data set [1] (setting [5]), 0.001 to 0.025 µM; in data set [2] (setting [6]) it was 0.001 to 0.025 µM; in data set [2] (setting [4]) it was 0.023 µM.
